According to ChEMBL document CHEMBL5614367, “Hydroxamic acid hybrids: Histone deacetylase inhibitors with anticancer therapeutic potency” (Eur J Med Chem, 2023):
Blank lines part the entries; values can stand above or below the compound they belong to.

Columns and labels:
[1] = system: MIA PaCa-2; experiment: Antiproliferative activity against human MIA PaCa-2 cells assessed as inhibition of cell growth measured after 72 hrs by MTT assay; format: functional, cell-based; conditions: MIA PaCa-2, 72 h
[2] = system: CFPAC-1; experiment: Antiproliferative activity against human CFPAC-1 cells assessed as inhibition of cell growth measured after 72 hrs by MTT assay; format: functional, cell-based; conditions: CFPAC-1, 72 h
[3] = system: ASPC1; experiment: Antiproliferative activity against human ASPC1 cells assessed as inhibition of cell growth measured after 72 hrs by MTT assay; format: functional, cell-based; conditions: ASPC1, 72 h
[4] = system: LAPC4; experiment: Antiproliferative activity against human LAPC4 cells assessed as inhibition of cell growth measured after 72 hrs by SRB assay; format: functional, cell-based; conditions: LAPC4, 72 h
[5] = Antitumor activity against human Castration-resistant LuCaP 35CR cells xenografted in male CB17 SCID mouse assessed as inhibition of tumor growth at 100 mg/kg, po administered via oral gavage measured after 19 days relative to control; format: functional; conditions: 456 h, time 19 day
[6] = system: BXPC-3; experiment: Antitumor activity against human BXPC-3 cells xenografted in female BALB/c nude mouse assessed as tumor inhibition rate by measuring T/C ratio at 10 mg/kg, ip administered for 20 days and measured every 1 to 3 days relative to control; format: functional; conditions: time 20 day
[7] = system: HPAC; experiment: Antiproliferative activity against human HPAC cells assessed as inhibition of cell growth measured after 72 hrs by MTT assay; format: functional, cell-based
[8] = system: KYSE-510; experiment: Antiproliferative activity against human KYSE-510 cells assessed as inhibition of cell growth measured after 72 hrs by CCK-8 assay; format: functional, cell-based; conditions: KYSE-510, 72 h
[9] = system: KYSE-450; experiment: Antiproliferative activity against human KYSE-450 cells assessed as inhibition of cell growth measured after 72 hrs by CCK-8 assay; format: functional, cell-based; conditions: KYSE-450, 72 h
[10] = system: DU-145; experiment: Antiproliferative activity against human DU-145 cells assessed as inhibition of cell growth measured after 72 hrs by SRB assay; format: functional, cell-based; conditions: DU-145, 72 h
[11] = system: LNCaP; experiment: Antiproliferative activity against human LNCaP cells assessed as inhibition of cell growth measured after 72 hrs by SRB assay; format: functional, cell-based
[12] = system: PC-3; experiment: Antiproliferative activity against human PC-3 cells assessed as inhibition of cell growth measured after 72 hrs by SRB assay; format: functional, cell-based; conditions: PC-3, 72 h
[13] = system: KYSE-450; experiment: Antitumor activity against human KYSE-450 cells xenografted in male C57BL/6 nude mouse assessed as reduction in tumor growth at 200 mg/kg, po administered for 5 days followed by 2 off schedule and measured every third day for 31 days relative to control; format: functional; parameters: scale not given: the % may be the effect or the level left; conditions: time 31 day
[14] = system: CWR22R; experiment: Antiproliferative activity against human 22Rv1 cells assessed as inhibition of cell growth measured after 72 hrs by SRB assay; format: functional, cell-based; conditions: 22Rv1, 72 h
[15] = system: PANC-1; experiment: Antiproliferative activity against human PANC-1 cells assessed as inhibition of cell growth measured after 72 hrs by MTT assay; format: functional, cell-based; conditions: PANC-1, 72 h
[16] = system: BXPC-3; experiment: Antiproliferative activity against human BXPC-3 cells assessed as inhibition of cell growth measured after 72 hrs by MTT assay; format: functional, cell-based; conditions: BXPC-3, 72 h
[17] = system: LNCaP C4-2B; experiment: Antiproliferative activity against human LNCaP C4-2B cells assessed as inhibition of cell growth measured after 72 hrs by SRB assay; format: functional, cell-based
[18] = system: LNCaP C4-2; experiment: Antiproliferative activity against human C4-2 cells assessed as inhibition of cell growth measured after 72 hrs by SRB assay; format: functional, cell-based; conditions: LNCaP C4-2, 72 h
[19] = system: A549; experiment: Antitumor activity against human A549 cells xenografted in assessed as reduction in tumor growth at 50 mg/kg, po administered via oral gavage 5 days on/2 days off dosing and measured on day 10,25 and 31 relative to control; format: functional; parameters: scale not given: the % may be the effect or the level left; conditions: time 31 day
[20] = system: KYSE-150 cell line; experiment: Antiproliferative activity against human KYSE-150 cells assessed as inhibition of cell growth measured after 72 hrs by CCK-8 assay; format: functional, cell-based; conditions: KYSE-150, 72 h
[21] = system: KYSE-30; experiment: Antiproliferative activity against human KYSE-30 cells assessed as inhibition of cell growth measured after 72 hrs by CCK-8 assay; format: functional, cell-based; conditions: KYSE-30, 72 h
[22] = system: DU-145; experiment: cells; format: functional, cell-based; conditions: Homo sapiens, DU-145, 48 h; pooled result: one value given for 6 cell lines, strains, targets or settings
[23] = molecular target: Epidermal growth factor receptor (Homo sapiens) (UniProt P00533); experiment: Inhibition of EGFR (unknown origin) at 10 uM preincubated for 0.5 hrs followed by substrate addition and measured after 1 hr by ADP-Glo assay relative to control; conditions: time 1.5 hrs
Sequence of Epidermal growth factor receptor (Homo sapiens) (P00533 whole entry): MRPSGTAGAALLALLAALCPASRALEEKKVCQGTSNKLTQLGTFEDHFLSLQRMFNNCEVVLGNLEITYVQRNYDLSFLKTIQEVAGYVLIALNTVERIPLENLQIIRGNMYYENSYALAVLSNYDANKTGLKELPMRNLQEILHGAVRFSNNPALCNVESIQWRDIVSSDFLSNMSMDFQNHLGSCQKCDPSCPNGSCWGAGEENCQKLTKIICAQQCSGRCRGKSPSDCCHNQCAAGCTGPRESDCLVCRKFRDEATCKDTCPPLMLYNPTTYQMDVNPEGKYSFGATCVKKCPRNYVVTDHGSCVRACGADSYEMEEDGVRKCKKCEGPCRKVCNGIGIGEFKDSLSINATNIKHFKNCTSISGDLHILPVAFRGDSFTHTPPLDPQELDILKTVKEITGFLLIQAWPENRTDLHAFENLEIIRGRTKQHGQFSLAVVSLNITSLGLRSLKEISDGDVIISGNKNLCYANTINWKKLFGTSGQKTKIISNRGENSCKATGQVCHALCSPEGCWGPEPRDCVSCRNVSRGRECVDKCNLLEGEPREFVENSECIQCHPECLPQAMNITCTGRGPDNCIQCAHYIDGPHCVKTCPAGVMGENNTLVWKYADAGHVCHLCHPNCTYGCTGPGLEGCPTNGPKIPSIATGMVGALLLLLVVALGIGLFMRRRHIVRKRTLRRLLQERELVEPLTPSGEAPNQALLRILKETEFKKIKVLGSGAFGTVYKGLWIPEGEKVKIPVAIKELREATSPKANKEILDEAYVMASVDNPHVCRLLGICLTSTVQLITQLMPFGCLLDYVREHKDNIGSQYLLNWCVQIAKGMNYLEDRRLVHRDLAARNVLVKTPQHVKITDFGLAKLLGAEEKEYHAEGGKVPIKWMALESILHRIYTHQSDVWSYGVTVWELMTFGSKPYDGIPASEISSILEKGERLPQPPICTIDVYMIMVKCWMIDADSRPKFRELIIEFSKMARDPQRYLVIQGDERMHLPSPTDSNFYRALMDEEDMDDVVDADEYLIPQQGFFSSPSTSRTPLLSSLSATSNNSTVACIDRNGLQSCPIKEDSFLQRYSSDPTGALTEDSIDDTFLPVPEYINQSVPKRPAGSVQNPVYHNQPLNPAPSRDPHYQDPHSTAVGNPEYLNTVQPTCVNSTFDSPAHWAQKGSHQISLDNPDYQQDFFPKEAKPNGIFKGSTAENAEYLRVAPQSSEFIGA

[24] = molecular target: Histone deacetylase; experiment: Inhibition of human HDAC extracted from human HeLa cell nuclear extract incubated for 30 mins by fluorometric analysis; format: subcellular, Nucleus
[25] = system: K562; experiment: cells; format: functional, cell-based; conditions: Homo sapiens, K562, 72 h; pooled result: one value given for 11 cell lines, strains, targets or settings
[26] = system: EL4; experiment: Antitumor activity against mouse EL4 cells implanted in mouse assessed as tumor weight inhibition at 15 mg/kg, ip measured after 12 days relative to control; format: functional; conditions: EL4, 288 h, time 12 day
[27] = molecular target: Histone deacetylase 2 (Homo sapiens, UniProt Q92769); experiment: Inhibition of HDAC2 (unknown origin)
Sequence of Histone deacetylase 2 (Q92769 whole entry): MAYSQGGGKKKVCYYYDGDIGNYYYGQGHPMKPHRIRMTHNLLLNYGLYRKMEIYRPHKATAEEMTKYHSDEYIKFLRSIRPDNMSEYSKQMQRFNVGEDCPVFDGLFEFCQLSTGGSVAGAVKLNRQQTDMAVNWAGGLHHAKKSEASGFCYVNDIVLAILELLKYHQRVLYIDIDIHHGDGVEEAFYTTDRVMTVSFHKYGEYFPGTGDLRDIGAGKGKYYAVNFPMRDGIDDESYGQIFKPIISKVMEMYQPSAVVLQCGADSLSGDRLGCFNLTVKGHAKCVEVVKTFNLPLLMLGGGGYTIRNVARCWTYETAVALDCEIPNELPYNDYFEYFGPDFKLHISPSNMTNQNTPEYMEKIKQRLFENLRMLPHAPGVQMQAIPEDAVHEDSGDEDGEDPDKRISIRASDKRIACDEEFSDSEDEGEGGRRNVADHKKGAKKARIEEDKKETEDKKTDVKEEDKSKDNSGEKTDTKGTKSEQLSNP

[28] = system: HCT-116; experiment: Antitumor activity against human HCT-116 cells xenografted in mouse assessed as tumor weight inhibition at 30 to 150 mg/kg, ip relative to control; format: functional; conditions: dose 30-150 mg/kg
[29] = molecular target: T1, Histone deacetylase 8 (Homo sapiens, UniProt Q9BY41); experiment: Inhibition of HDAC8 (unknown origin)
T1 sequence (Q9BY41 whole entry): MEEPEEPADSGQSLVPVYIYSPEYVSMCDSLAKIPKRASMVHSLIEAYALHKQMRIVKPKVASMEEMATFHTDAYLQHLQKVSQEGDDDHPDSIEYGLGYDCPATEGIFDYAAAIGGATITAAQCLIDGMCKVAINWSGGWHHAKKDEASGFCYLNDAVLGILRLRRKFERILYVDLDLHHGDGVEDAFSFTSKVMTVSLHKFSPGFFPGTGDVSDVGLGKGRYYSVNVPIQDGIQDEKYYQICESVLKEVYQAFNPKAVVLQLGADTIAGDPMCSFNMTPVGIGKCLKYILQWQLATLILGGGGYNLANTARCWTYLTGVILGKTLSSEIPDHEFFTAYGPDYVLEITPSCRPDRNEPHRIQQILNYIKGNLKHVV

[30] = system: HGC-27; experiment: Antitumor activity against human HGC-27 cells xenografted in mouse assessed as tumor weight inhibition at 30 to 150 mg/kg, ip relative to control; format: functional; conditions: dose 30-150 mg/kg
[31] = system: A20; experiment: Antitumor activity against mouse A20 cells implanted in mouse assessed as tumor weight inhibition at 15 mg/kg, ip measured after 12 days relative to control; format: functional; conditions: A20, 288 h, time 12 day

IC50 [1]: 2 nM
IC50 [3]: 2 nM
IC50 [10]: 2 nM
IC50 [11]: 2 nM
IC50 [12]: 2 nM
IC50 [15]: 2 nM
IC50 [16]: 2 nM
IC50 [17]: 2 nM
IC50 [18]: 2 nM
Structure (SMILES): COc1ccc(-c2nc(N3CCOCC3)c3sc(CN(C)c4ncc(C(=O)NO)cn4)cc3n2)cn1 [FIMEPINOSTAT]
IC50 [2]: 2 nM
IC50 [4]: 2 nM
inhibition in vivo at 100 mg/kg [5]: ~60%
T/C [6]: 52%
IC50 [7]: 2 nM
IC50 [8]: 2 nM
IC50 [9]: 2 nM
Activity [13]: ~65%
IC50 [14]: 2 nM
Activity [19]: ~80%
IC50 [20]: 2 nM
IC50 [21]: 2 nM

IC50 [22]: 1180 nM
inhibition [23]: 75%
IC50 [24]: 474 nM
Structure (SMILES): O=C(CCCCCCC(=O)Nc1ccc2ncnc(Nc3cccc(Cl)c3)c2c1)NO

IC50 [25]: 23 nM
IC50 [27]: 1.4 nM
IC50 [29]: 1.4 nM
Structure (SMILES): COc1ncc(-c2cc(OCCCCCCC(=O)NO)c3ncnc(C)c3c2)cc1F
inhibition in vivo at 15 mg/kg [26]: 78.1%
inhibition (INH) [28]: 45.8%
inhibition (INH) [30]: 62.6%
inhibition in vivo at 15 mg/kg [31]: 60%
